# Test results as given in patent US8110217B2, “Sphingomyelin liposomes for the treatment of hyperactive bladder disorders” (priority 2001, dated 2012).
# “And” between values parts separate entries of the source, which are not always exact repeats. Identical values can stand only once. “Also recorded” adds a separate entry of the source.
# System: acute hyperactive bladder
# Assay: Continuous CMG, acute hyperactive bladder model with intravesical PS and KCl (Examples 7-8)
# Assay type: in vivo, female Sprague-Dawley rats
# Protocol: An animal model for acute hyperactive bladder in rats was developed using intravesical infusion of PS, an agent used to break down urothelial barrier function and physiological concentrations of KCl.
# Continuous CMGs were performed in urethane-anesthetized female rats. The bladder was filled (0.04 ml/min) with normal saline followed by intravesical infusion for a 60 minute period with a test solution comprising either KCl (100 or 500 mM) or PS (10 or 30 mg/ml). Following this, 10 mg/ml PS treated animals were infused intravesically with 100, 300 or 500 mM KCl. Some animals were pretreated with capsaicin ([…], sc) four days before the experiments.
# Animal Preparation. The study was performed on 40 female Sprague-Dawley rats weighing 250-300 gm. Animals were anesthetized with 1.2 gm/kg urethane injected subcutaneously. Body temperature was maintained in the physiological range using a heating lamp.
# Cystometrogram (CMG). PE-50 tubing (Clay-Adams, Parsippany, N.J.) was inserted into the bladder through the urethra and connected via a three-way stopcock to a pressure transducer and to a syringe pump. This was used for recording intravesical pressure and for infusing solutions into the bladder. A control CMG was performed by slowly filling the bladder with saline (0.04 ml/min) to elicit repetitive voiding. The amplitude, PT, compliance and intercontraction interval (ICI) of reflex bladder contractions were recorded. Pressure threshold (PT) represents the pressure that induces the initial bladder contraction. PT often has been used as a parameter corresponding to afferent nerve activity for the induction of reflex bladder contractions. Measurements in each animal represented the average of 3 to 5 bladder contractions.
# After performing control CMGs with saline infusion, three intravesical infusion experiments were performed in parallel: (1) infusion of KCl (100 or 500 mM in saline) for one hour (N=4 in each group); (2) infusion of PS (Sigma Chemical Co.; 30 mg/ml in saline) for one hour (N=6); and (3) infusion of PS (10 mg/ml) for one hour, followed by 100, 300 or 500 mM KCl for one hour (N=6, in each subgroup). In four animals, capsaicin dissolved in a vehicle containing 10% ethanol, 10% TWEEN®80 and 80% physiological saline, at a concentration of 20 mg/ml was given subcutaneously in divided doses on 2 consecutive days. The doses included 25 and 50 mg/kg at a 12-hour interval on the first day and 50 mg/kg on the second day, as previously described (C. L. Cheng et al., 1993, Am. J. Physiol. 265:R132-138). All injections were performed under halothane anesthesia. Four days after the last dosage of capsaicin, the animals were anesthetized and treated with intravesical administration of PS (10 mg/ml) for 1 hour followed by KCl (500 mM) infusion.
# Suppression of Micturition Reflex. To evaluate the direct effects of potassium on detrusor muscle, micturition reflex was blocked in 4 animals by either intravenous hexamethonium injection (25 mg/kg) (N=2) or transection of bilateral pelvic nerves (N=2).
# Statistical Analysis. Statistical analyses were performed using Student's t test for paired or unpaired data, as applicable, with p<0.05 considered significant. Quantitative data are expressed in Example 8 (below) as means plus or minus standard error.
# [1] = 100 mM KCl alone, one hour, N=4
# [2] = 100 mM KCl following 10 mg/ml PS, N=6
# [3] = 300 mM KCl following 10 mg/ml PS, N=6
# [4] = 300 mM KCl following PS 10 mg/ml
# [5] = 500 mM KCl alone, one hour, N=4
# [6] = 500 mM KCl following 10 mg/ml PS, N=6
# [7] = 500 mM KCl following PS 10 mg/ml
# [8] = KCl 500 mM 1 hr after one hour PS 10 mg/ml, capsaicin pretreated animals, N=4
# [9] = KCl 500 mM 2 hr after one hour PS 10 mg/ml, capsaicin pretreated animals, N=4
# [10] = KCl 500 mM following PS 10 mg/ml, micturition reflex suppressed animals
# [11] = capsaicin pretreated animals, PS 10 mg/ml then KCl 500 mM, 2 hours of infusion
smiles,measurement,setting,value
[Cl-].[K+] [KCl],Amplitude,[1],28.2 ± 0.5 cm H2O
same,Compliance,[1],0.205 ± 0.032 ml/cm H2O
same,ICI,[1],13.8 ± 2.0 min
same,PT,[1],5.9 ± 0.5 cm H2O
same,Amplitude,[2],28.2 ± 3.7 cm H2O
same,Compliance,[2],0.157 ± 0.022 ml/cm H2O
same,ICI,[2],18.8 ± 2.1 min
same,PT,[2],3.0 ± 1.3 cm H2O
same,Amplitude,[3],31.3 ± 0.7 cm H2O
same,Compliance,[3],0.066 ± 0.012 ml/cm H2O
same,ICI,[3],5.2 ± 1.7 min
same,PT,[3],3.3 ± 0.9 cm H2O
same,ICI decrease,[4],76.9%
same,compliance decrease,[4],60%
same,contraction amplitude increase,[4],23.7%
same,onset of irritation (delay),[4],20 to 30 min
same,Amplitude,[5],28.8 ± 1.2 cm H2O
same,Compliance,[5],0.237 ± 0.023 ml/cm H2O
same,ICI,[5],15.8 ± 2.4 min
same,PT,[5],8.2 ± 0.9 cm H2O
same,Amplitude,[6],29.5 ± 3.4 cm H2O
same,Compliance,[6],0.075 ± 0.009 ml/cm H2O
same,ICI,[6],3.2 ± 1.3 min
same,PT,[6],5.4 ± 1.0 cm H2O
same,ICI decrease,[7],82.9%
same,compliance decrease,[7],63.4%
same,contraction amplitude increase,[7],21.4%
same,onset of irritation (delay),[7],10 to 15 min
same,PT change,300 or 500 mM KCl following PS 10 mg/ml,not significantly altered
same,Amplitude,[8],20.3 ± 0.3 cm H2O
same,Compliance,[8],0.218 ± 0.013 ml/cm H2O
same,ICI,[8],21.3 ± 2.8 min
same,PT,[8],5.8 ± 0.5 cm H2O
same,Amplitude,[9],16.0 ± 1.7 cm H2O
same,Compliance,[9],0.100 ml/cm H2O and 0.100 ± 0.016 ml/cm H2O
same,ICI,[9],13.1 ± 2.8 min
same,PT,[9],7.6 ± 1.7 cm H2O
same,Compliance,[10],0.041±0.011 ml/cm H2O
same,compliance decrease,[10],55.9%
same,detrusor muscle / bladder compliance,[10],stimulated the detrusor muscle and decreased bladder compliance
same,irritative effects / CMG parameters,KCl 100 or 500 mM alone,not observed; also recorded: not significantly different from those during saline administration
same,ICI decrease,[11],36%
same,compliance decrease,[11],55%
same,bladder hyperactivity,high concentrations of KCl (300/500 mM) following one hour of PS 10 mg/ml,induced bladder hyperactivity (decrease ICI)
same,CMG parameters,"low concentration KCl (100 mM), one hour, following PS 10 mg/ml",did not produce significant changes in the CMG parameters; also recorded: had no effect
